Reference: patent US10233222B2, “Methods, compositions, diagnostics and assays for the treatment of Alzheimer's disease” (priority 2014, dated 2019)

Biological target: T1, Aβ42-SYP interaction (Homo sapiens, UniProt P08247)
T1 construct: His6; made in house; host or cells: insect cells (SYP)
Assay: SPR binding of Aβ42 to SYP in the presence of cholesterol hemisuccinate
Conditions: increasing concentrations of cholesterol hemisuccinate
Experimental: Surface Plasmon Resonance: Binding studies were performed on a Biacore 3000 or a BiOptix 404 pi, with similar results. For the Biacore, a CMS chip was used and for the BiOptix instrument, a CMV150 chip was employed. […] Recombinant human SYP, containing a His(6)-tag expressed in insect cells, was a gift of J. Mapes and A. DeFazio at CU Boulder. Bovine serum albumin (Sigma, St. Louis, Mo.), Interleukin 1 receptor antagonist (gift of Synergen, Inc., Boulder, Colo.), and SLC35F1 (gift of G. Chang, UCSD) were used as control proteins. Binding at a flow rate of 20 μl/min was in 0.15M sodium chloride, 0.03M sodium HEPES, pH 7.4, 0.009% Fos-choline 14 (Anatrace, Santa Clara, Calif.) for all samples.
We therefore asked if cholesterol inhibits the Aβ42-SYP interaction.

T1 sequence (P08247 whole entry): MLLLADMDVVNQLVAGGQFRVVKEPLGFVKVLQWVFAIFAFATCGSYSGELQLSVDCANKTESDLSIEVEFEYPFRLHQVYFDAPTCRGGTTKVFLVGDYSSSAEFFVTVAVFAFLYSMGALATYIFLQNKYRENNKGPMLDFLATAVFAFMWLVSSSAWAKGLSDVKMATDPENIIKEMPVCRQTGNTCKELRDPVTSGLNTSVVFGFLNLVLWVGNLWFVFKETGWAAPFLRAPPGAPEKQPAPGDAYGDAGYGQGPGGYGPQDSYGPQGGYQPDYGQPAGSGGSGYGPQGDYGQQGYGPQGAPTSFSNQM

Substance: cholesterol hemisuccinate
- inhibition of binding of Aβ42 to SYP: robust concentration dependent inhibition of binding
